Laboratory results taken from PMC9231303, “Pharmacokinetic–Pharmacometabolomic Approach in Early-Phase Clinical Trials: A Way Forward for Targeted Therapy in Type 2 Diabetes” (Pharmaceutics, 2022).
“And” between values parts separate entries of the source, which are not always exact repeats. Identical values can stand only once. “Also recorded” adds a separate entry of the source. Like-named read-outs stand apart in the source and are kept apart here.

Assays:
[1] = cited from earlier work
[2] = test system: human metabolic pathways (KEGG); assay: Untargeted plasma pharmacometabolomics dataset A (pre-dose versus T2.5, 3, 3.5 h, n = 6), mummichog functional pathway analysis; conditions: time course 0–12 h
clinical = conditions: human, in vivo
[3] = Clinical safety, adverse event and glucose monitoring after single-dose metformin 1000 mg in healthy subjects; assay type: in vivo, human
Description: Three cohorts were planned to ensure sufficient clinical ward staff and space to monitor every subject on the dosing day. Subjects were housed in a controlled environment, and standardized meals were provided to each cohort. The blood samples were collected using an ethylenediaminetetraacetic acid (EDTA) tube and centrifuged at 10,000 rpm for 10 min at 4. The plasma samples together with the urine samples were kept in a -80 °C freezer in cryovials for further analysis. The subjects were monitored for adverse events until seven days post-dose. Pre-dose and peak-concentration plasma samples were used for untargeted pharmacometabolomic analysis to determine the treatment metabotypes.

[4] = test system: human metabolic pathways (KEGG); assay: Untargeted urine pharmacometabolomics (pre-dose U0 versus U1 0–4 h, U2 4–8 h, U3 8–12 h, n = 6), mummichog functional pathway analysis; assay type: in vivo; conditions: urine collections 0–12 h

CN(C)C(=N)N=C(N)N [metformin]
peak plasma concentration ([1]; diabetic patients, 1000 mg twice daily chronically): approximately 40 µM | plasma concentration reached within three hours ([1]; oral 1000 mg, non-diabetic subjects): 25 µM | metformin intensity in plasma (untargeted LCMS, positive mode) [2]: a reducing trend happened at 8 h and a return to zero at 12 h | Cmax (clinical; 1000 mg, subject S4): 1430 ng/mL | Cmax (clinical; 1000 mg, subject S9): 1170 ng/mL | Tmax (clinical; male): 2.65 h | AUC(0-t) (clinical; male, 1000 mg): 10900 ng·h/mL | k el (clinical; male, Ke): 3.97e-05 s⁻¹ | AUC (clinical; male, po, 1000 mg): 9510 ng·h/mL | AUC(0-t) (clinical; male, po, 1000 mg, AUC_0–24): 8960 ng·h/mL | Tmax (male, human, in vivo): 3 h | T_max (male, human, in vivo, po): 2.5 (2.5–3.0) h | CL (male, human, in vivo, po, 1000 mg): 1884 (32.3) mL/min | Tmax (subject S6): 2 h | Tmax (subject S8): 3.5 h and 2 h | Cmax (subject S10): 1391.3 ng/mL | Tmax (subject S15): 4 h | Tmax (subject S16): 2 h | Cmax (subject S17): 1381.7 ng/mL | Tmax (subject S17): 4 h | Glucose ([3]; 4 hours post-dose (before lunch), mean of 17 subjects): 4.7 mmol/L | Glucose ([3]; 4 hours post-dose, subject S01): 5.0 mmol/L | Glucose ([3]; 4 hours post-dose, subject S02): 4.7 mmol/L | Glucose ([3]; 4 hours post-dose, subject S04): 4.8 mmol/L | Glucose ([3]; 4 hours post-dose, subject S05): 5.2 mmol/L | Glucose ([3]; 4 hours post-dose, subject S06): 4.6 mmol/L | Glucose ([3]; 4 hours post-dose, subject S07): 4.7 mmol/L | Glucose ([3]; 4 hours post-dose, subject S08): 4.3 mmol/L | Glucose ([3]; 4 hours post-dose, subject S09): 4.4 mmol/L | Glucose ([3]; 4 hours post-dose, subject S10): 4.9 mmol/L | Glucose ([3]; 4 hours post-dose, subject S11): 4.7 mmol/L | Glucose ([3]; 4 hours post-dose, subject S12): 5.2 mmol/L | Glucose ([3]; 4 hours post-dose, subject S13): 4.4 mmol/L | Glucose ([3]; 4 hours post-dose, subject S14): 4.7 mmol/L | Glucose ([3]; 4 hours post-dose, subject S15): 4.4 mmol/L | Glucose ([3]; 4 hours post-dose, subject S16): 4.9 mmol/L | Glucose ([3]; 4 hours post-dose, subject S17): 4.6 mmol/L | Glucose ([3]; 4 hours post-dose, subject S18): 3.9 mmol/L | clinical laboratory characteristics ([3]; screening versus follow-up, clinician judgement): within normal range and considered no significant changes | adverse drug reaction ([3]; single dose 1000 mg, 17 healthy subjects, monitored until seven days post-dose): One subject experienced abdominal pain after the dosing; also recorded: stomach cramps; also recorded: one side effect was observed | metformin in urine (untargeted LCMS, positive mode) [4]: achieved high concentration in the first 8 h and a slight reduction during 8–12 h
